From PubChem BioAssay (NCI)
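Compound exposure: 48 hours, 5 concentrations, 96-well plates. GI50 marks 50% less growth. TGI is the concentration that stops growth completely.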

Experiments:
Experiment in all cases: NCI-60 cell line screen, 48 h; in the data active means GI50 below about 0.43 µM; inactive means the rest
[1] = tested on: 786-0 renal
[2] = tested on: A498 renal
[3] = tested on: A549 NSCLC
[4] = tested on: ACHN renal
[5] = tested on: BT-549 breast
[6] = tested on: CAKI-1 renal
[7] = tested on: CCRF-CEM leukemia
[8] = tested on: COLO 205 colon
[9] = tested on: DU-145 prostate
[10] = tested on: EKVX NSCLC
[11] = tested on: HCT-116 colon
[12] = tested on: HCT-15 colon
[13] = tested on: HL-60(TB) leukemia
[14] = tested on: HOP-62 NSCLC
[15] = tested on: HOP-92 NSCLC
[16] = tested on: HS 578T breast
[17] = tested on: HT29 colon
[18] = tested on: IGROV1 ovarian
[19] = tested on: K-562 leukemia
[20] = tested on: KM12 colon
[21] = tested on: LOX IMVI melanoma
[22] = tested on: M14 melanoma
[23] = tested on: MALME-3M melanoma
[24] = tested on: MCF7 breast
[25] = tested on: MDA-MB-231 breast
[26] = tested on: MDA-MB-435
[27] = tested on: MOLT-4 leukemia
[28] = tested on: NCI-H226 lung
[29] = tested on: NCI-H23 lung
[30] = tested on: NCI-H460 lung
[31] = tested on: NCI-H522 lung
[32] = tested on: NCI/ADR-RES ovarian
[33] = tested on: OVCAR-3 ovarian
[34] = tested on: OVCAR-4 ovarian
[35] = tested on: OVCAR-5 ovarian
[36] = tested on: OVCAR-8 ovarian
[37] = tested on: PC-3 prostate
[38] = tested on: RPMI-8226 leukemia
[39] = tested on: RXF 393 renal
[40] = tested on: SF-268 CNS
[41] = tested on: SF-295 CNS
[42] = tested on: SF-539 CNS
[43] = tested on: SK-MEL-2 melanoma
[44] = tested on: SK-MEL-28 melanoma
[45] = tested on: SK-MEL-5 melanoma
[46] = tested on: SK-OV-3 ovarian
[47] = tested on: SN12C renal
[48] = tested on: SNB-19 CNS
[49] = tested on: SNB-75 CNS
[50] = tested on: T-47D breast
[51] = tested on: TK-10 renal
[52] = tested on: U251 CNS
[53] = tested on: UACC-257 melanoma
[54] = tested on: UACC-62 melanoma
[55] = tested on: UO-31 renal
[56] = tested on: HCC-2998 colon
[57] = tested on: SW-620 colon

CC12CCC(=O)C(O1)C1C(=O)c3ccc4c(ccc5ccccc54)c3C(=O)C12 (stereo not drawn)
10.7 µM: TGI [37]
4.4 µM: TGI [23]
4.71 µM: TGI [11]
> 59.1 µM: TGI [8]
11.4 µM: TGI [35]
12.6 µM: TGI [32]
13.4 µM: TGI [24]
36.1 µM: TGI [40]
5.83 µM: TGI [2]
12.7 µM: TGI [28] | TGI [36]
54 µM: TGI [49]
10.3 µM: TGI [47]
35.6 µM: TGI [52]
8.15 µM: TGI [53]
inactive: GI50 [1] 2.35 µM | GI50 [2] 3.08 µM | GI50 [3] 9.34 µM | GI50 [4] 3.13 µM | GI50 [5] 6.69 µM | GI50 [6] 1.82 µM | GI50 [7] 3.77 µM | GI50 [8] 2.13 µM | GI50 [9] 2.73 µM | GI50 [10] 8.47 µM | GI50 [11] 3.03 µM | GI50 [12] 14.2 µM | GI50 [13] 1.66 µM | GI50 [14] 26.5 µM | GI50 [15] 7.1 µM | GI50 [16] 9.77 µM | GI50 [17] 13.2 µM | GI50 [18] 7.09 µM | GI50 [19] 1.72 µM | GI50 [20] 4.99 µM | GI50 [21] 0.477 µM | GI50 [22] 12.2 µM | GI50 [23] 0.945 µM | GI50 [24] 3.89 µM | GI50 [25] 2.14 µM | GI50 [26] 13 µM | GI50 [27] 1.31 µM | GI50 [28] 5.78 µM | GI50 [29] 4.15 µM | GI50 [30] 4.84 µM | GI50 [31] 5.52 µM | GI50 [32] 5.43 µM | GI50 [33] 1.2 µM | GI50 [34] 1.4 µM | GI50 [35] 6.64 µM | GI50 [36] 4.27 µM | GI50 [37] 4.36 µM | GI50 [38] 1.21 µM | GI50 [40] 15.3 µM | GI50 [41] 1.46 µM | GI50 [42] 18.8 µM | GI50 [43] 10 µM | GI50 [44] 29.1 µM | GI50 [45] 1.63 µM | GI50 [46] 11.5 µM | GI50 [47] 5.42 µM | GI50 [48] 20.9 µM | GI50 [49] 20.5 µM | GI50 [50] 2.26 µM | GI50 [51] 3.47 µM | GI50 [52] 18.8 µM | GI50 [53] 3.11 µM | GI50 [54] 1.46 µM | GI50 [55] 6.69 µM
11.8 µM: TGI [30]
3.57 µM: TGI [21]
> 26.1 µM: TGI [16]
> 100 µM: TGI [7] | TGI [17] | TGI [18] | TGI [44]
> 28.6 µM: TGI [43]
30.6 µM: TGI [12] | TGI [22]
> 39.1 µM: TGI [46]
9.66 µM: TGI [20]
52 µM: TGI [48]
19 µM: TGI [10]
2.86 µM: TGI [54]
26.4 µM: TGI [26]
8.21 µM: TGI [4]
7.3 µM: TGI [19]
7.21 µM: TGI [13]
6.01 µM: TGI [1]
14.3 µM: TGI [31]
6.49 µM: TGI [9]
32.3 µM: TGI [15]
50.3 µM: TGI [14]
45.3 µM: TGI [42]
2.64 µM: TGI [33]
13.2 µM: TGI [5]
17.5 µM: TGI [27]
3.01 µM: TGI [34]
7.89 µM: TGI [51]
> 21.5 µM: TGI [38]
> 28.5 µM: TGI [50]
2.03 µM: TGI [39]
6.63 µM: TGI [6]
3 µM: TGI [41]
33.2 µM: TGI [3]
6.64 µM: TGI [25]
3.3 µM: TGI [45]
8.35 µM: TGI [29]

Fc1ccc2c(c1)C1=C(CCC2)C(c2ccc(Cl)cc2)NC(=S)N1 (stereo not drawn)
> 100 µM: TGI [1] | TGI [2] | TGI [3] | TGI [4] | TGI [5] | TGI [6] | TGI [7] | TGI [8] | TGI [9] | TGI [10] | TGI [56] | TGI [11] | TGI [12] | TGI [13] | TGI [16] | TGI [17] | TGI [18] | TGI [19] | TGI [20] | TGI [21] | TGI [22] | TGI [24] | TGI [25] | TGI [26] | TGI [27] | TGI [28] | TGI [29] | TGI [30] | TGI [32] | TGI [33] | TGI [34] | TGI [35] | TGI [36] | TGI [37] | TGI [39] | TGI [40] | TGI [41] | TGI [42] | TGI [44] | TGI [45] | TGI [46] | TGI [48] | TGI [49] | TGI [57] | TGI [50] | TGI [52] | TGI [54] | TGI [55]
80.3 µM: TGI [51]
80.2 µM: TGI [23]
73.9 µM: TGI [15]
94 µM: TGI [31]
70 µM: TGI [53]
53.8 µM: TGI [38]
89.2 µM: TGI [47]
inactive: GI50 [1] 25 µM | GI50 [2] 43.6 µM | GI50 [3] 20.7 µM | GI50 [4] 29.5 µM | GI50 [5] > 100 µM | GI50 [6] 51.7 µM | GI50 [7] 31.8 µM | GI50 [8] 62.1 µM | GI50 [9] 49.1 µM | GI50 [10] 32.8 µM | GI50 [56] 43.2 µM | GI50 [11] 26.1 µM | GI50 [12] 26.2 µM | GI50 [13] 7.51 µM | GI50 [15] 16.7 µM | GI50 [16] 50.5 µM | GI50 [17] 49.9 µM | GI50 [18] 10.3 µM | GI50 [19] 32.4 µM | GI50 [20] 32.3 µM | GI50 [21] 36 µM | GI50 [22] 40.9 µM | GI50 [23] 22.6 µM | GI50 [24] 26.6 µM | GI50 [25] 24.2 µM | GI50 [26] 40.9 µM | GI50 [27] 24.5 µM | GI50 [28] 35.2 µM | GI50 [29] 84.7 µM | GI50 [30] 32.7 µM | GI50 [31] 13.1 µM | GI50 [32] 61.6 µM | GI50 [33] 27.8 µM | GI50 [34] 44.8 µM | GI50 [35] > 100 µM | GI50 [36] 25.8 µM | GI50 [37] 17.6 µM | GI50 [38] 13.1 µM | GI50 [39] 81.4 µM | GI50 [40] 83.8 µM | GI50 [41] 47 µM | GI50 [42] 37.6 µM | GI50 [44] 78 µM | GI50 [45] 28.4 µM | GI50 [46] > 100 µM | GI50 [47] 60.8 µM | GI50 [48] 77.9 µM | GI50 [49] 69.9 µM | GI50 [57] 39.1 µM | GI50 [50] 54.4 µM | GI50 [51] 12.6 µM | GI50 [52] 54.7 µM | GI50 [53] 21.5 µM | GI50 [54] 33.6 µM | GI50 [55] 16.9 µM
